This note sets out measurements from US10631541B1, “Nitrogen-15 isotope as a plant growth regulator” (Floratine Products Group, Inc, priority 2016, dated 2020).

One assay relates to Annual Rye. In words: Laboratory trial: Annual Rye seeds in trays of potting soil, sprayed every other day. The following applies: averages of 74 plants per tray after 1 week; for Root Length, percent inc (versus sugar solution): increase over sugar solution (2.9 cm); for Blade Length, percent increase (versus sugar solution): increase over sugar solution (6.3 cm); for Blade Length / Root Length: ingredient added to standard sugar solution (Ni 0.003% w/w, Co 0.003% w/w, nitrogen-15 0.00001% w/w), spray 12 ml per square meter every other day. Type of assay: in vivo. Here is the method: Some characteristics of the plant growth regulating composition according to the invention are illustrated by the following examples. The laboratory trial involved planting Annual Rye seeds in trays of commercially available potting soil. The seed density on the trays was 358 grams per square meter. The volume of each spray was 12 ml per square meter after the grass emerged. The spray frequency was every other day. The following ingredients were added at these concentrations to a standard sugar solution: Ni 0.003% w/w (Nickel), Co 0.003% w/w (cobalt) and nitrogen-15 0.00001% w/w.

Another assay concerns Common Bermuda. In words: Trial on turf, sprayed once with nitrogen-15 spray solutions. Format: in vivo. Here is the method: A trial on turf was conducted on Common Bermuda. The turf was sprayed once with spray solutions that contained four concentrations of nitrogen-15 ammonium sulfate. The concentrations ranged from: 0.001% though 0.004% w/w. The nitrogen-15 was mixed with a sugar solution as in the laboratory trial.

For `[Ni]` [Ni, Nickel], in the assay with Annual Rye, the “Root Length, percent inc (versus sugar solution)” value (shortened to “Root Length, percent inc”) stood at 41.40%; the “Blade Length, percent increase (versus sugar solution)” value (from here on “Blade Length, percent increase”) stood at 15.90%; the “Blade Length” value was 7.3 cm; the “Root Length” value was 4.1 cm.

Consider `[Co]` [Co, cobalt], for which, in the assay with Annual Rye, the “Root Length, percent inc” value was determined as 41.40%; the “Blade Length, percent increase” value was 11.10%; the “Blade Length” value came to 7.0 cm; the “Root Length” value is on record as 4.1 cm.

As for Nitrogen-15, in the assay on Annual Rye, the “Root Length, percent inc” value came to 20.70%; the “Blade Length, percent increase” value is 25.40%; the “Blade Length” value came to 7.9 cm; the “Root Length” value came out at 3.5 cm.

For the compound `O=S(=O)(O)O.[15NH3].[15NH3]` [nitrogen-15 ammonium sulfate], the “visual color of turf plot” value in the assay with Common Bermuda (plot sprayed once with 0.004% w/w in sugar solution, four concentrations 0.001% through 0.004% w/w compared) is “darkest green”. Also, in the assay on Common Bermuda (turf sprayed once, 0.001% through 0.004% w/w in sugar solution), the “Percent increase in leaf length” value is reported as “the same as the laboratory trial”.
